Patent US8871753B2, “Macrocyclic compounds and their use as kinase inhibitors” (Incyte Corporation, priority 2008, dated 2014)
Counter-ions that a name gives are not always drawn. Like-named read-outs stand apart in the source and are kept apart here.

What was measured:
Assay type in all cases: biochemical
[1] = target: T1, human JAK3 (a.a. 781-1124) (Homo sapiens, UniProt P52333); test: In vitro JAK kinase assay (HTRF, phosphorylation of a biotinylated peptide), JAK3
T1 construct: JAK3 (a.a. 781-1124); His tag (N); made in house; host or cells: insect cells (baculovirus)
Method: The catalytic activity of JAK1, JAK2 or JAK3 was assayed by measuring the phosphorylation of a biotinylated peptide. The phosphorylated peptide was detected by homogenous time resolved fluorescence (HTRF). […] The ATP concentration in the reactions was 90 μM for JAK1, 30 μM for JAK2 and 3 μM for JAK3. Reactions were carried out at room temperature for 1 hr and then stopped with 20 μL 45 mM EDTA, 300 nM SA-APC, 6 nM Eu-Py20 in assay buffer (Perkin Elmer, Boston, Mass.). Binding to the Europium labeled antibody took place for 40 minutes and HTRF signal was measured on a Fusion plate reader (Perkin Elmer, Boston, Mass.).
The catalytic activity of JAK1, JAK2 or JAK3 was assayed by measuring the phosphorylation of a biotinylated peptide. The phosphorylated peptide was detected by homogenous time resolved fluorescence (HTRF). […] Reactions were carried out at room temperature for 1 hr and then stopped with 20 μL 45 mM EDTA, 300 nM SA-APC, 6 nM Eu-Py20 in assay buffer (Perkin Elmer, Boston, Mass.). Binding to the Europium labeled antibody took place for 40 minutes and HTRF signal was measured on a Fusion plate reader (Perkin Elmer, Boston, Mass.).

[2] = target: T2, human JAK2 (a.a. 828-1132) (Homo sapiens, UniProt O60674); test: In vitro JAK kinase assay (HTRF, phosphorylation of a biotinylated peptide), JAK2
T2 construct: JAK2 (a.a. 828-1132); His tag (N); made in house; host or cells: insect cells (baculovirus)
In short: (§1)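 Kinase activity was measured as phosphorylation of a biotinylated peptide, with ATP at 90 μM for JAK1, 30 μM for JAK2 and 3 μM for JAK3. Reactions ran 1 hr at room temperature, were stopped with EDTA plus SA-APC and Eu-Py20, and were read by HTRF after 40 minutes of antibody binding.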

[3] = target: T3, human JAK1 (a.a. 837-1142) (Homo sapiens, UniProt P23458); test: In vitro JAK kinase assay (HTRF, phosphorylation of a biotinylated peptide), JAK1; details: read-out: JAK1 IC50
T3 construct: human JAK1 (a.a. 837-1142); His tag (N); made in house; host or cells: insect cells (baculovirus)
In short: as §1

TYK2 = TYK2 (Homo sapiens, UniProt P29597); test: TYK2 kinase inhibition (Table A1)
Sequence of TYK2 (P29597 whole entry): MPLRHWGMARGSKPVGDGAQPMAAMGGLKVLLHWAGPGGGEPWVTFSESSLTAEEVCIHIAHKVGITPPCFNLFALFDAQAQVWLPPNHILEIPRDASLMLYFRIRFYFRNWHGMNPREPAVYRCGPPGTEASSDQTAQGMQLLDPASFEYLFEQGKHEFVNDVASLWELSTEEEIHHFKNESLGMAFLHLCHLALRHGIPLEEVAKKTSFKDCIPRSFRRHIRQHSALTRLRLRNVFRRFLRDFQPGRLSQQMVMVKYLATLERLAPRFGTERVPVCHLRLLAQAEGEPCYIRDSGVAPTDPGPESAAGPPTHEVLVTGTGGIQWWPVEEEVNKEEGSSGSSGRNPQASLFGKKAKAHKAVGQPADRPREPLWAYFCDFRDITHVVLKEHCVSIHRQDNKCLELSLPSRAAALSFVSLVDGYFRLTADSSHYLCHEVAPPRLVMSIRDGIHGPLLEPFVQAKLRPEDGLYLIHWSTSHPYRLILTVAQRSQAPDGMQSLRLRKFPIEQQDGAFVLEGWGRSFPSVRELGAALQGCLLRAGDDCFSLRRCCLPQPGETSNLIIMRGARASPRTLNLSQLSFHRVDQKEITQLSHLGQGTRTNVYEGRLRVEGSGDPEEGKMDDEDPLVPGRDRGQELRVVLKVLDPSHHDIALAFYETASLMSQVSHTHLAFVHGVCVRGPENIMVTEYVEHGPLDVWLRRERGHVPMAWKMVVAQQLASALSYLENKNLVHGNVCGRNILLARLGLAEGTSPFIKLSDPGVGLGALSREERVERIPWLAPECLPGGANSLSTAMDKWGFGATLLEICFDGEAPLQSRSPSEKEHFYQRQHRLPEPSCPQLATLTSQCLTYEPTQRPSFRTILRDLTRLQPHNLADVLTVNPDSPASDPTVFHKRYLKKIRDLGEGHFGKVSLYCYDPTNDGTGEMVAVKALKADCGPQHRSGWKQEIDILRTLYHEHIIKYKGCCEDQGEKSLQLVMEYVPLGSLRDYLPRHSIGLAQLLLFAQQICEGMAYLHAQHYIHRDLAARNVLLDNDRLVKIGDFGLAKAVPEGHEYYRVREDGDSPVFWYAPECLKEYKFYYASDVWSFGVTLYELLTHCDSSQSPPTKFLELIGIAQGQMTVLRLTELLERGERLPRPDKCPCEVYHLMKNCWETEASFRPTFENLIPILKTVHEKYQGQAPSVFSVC

T1 sequence (P52333 781-1124): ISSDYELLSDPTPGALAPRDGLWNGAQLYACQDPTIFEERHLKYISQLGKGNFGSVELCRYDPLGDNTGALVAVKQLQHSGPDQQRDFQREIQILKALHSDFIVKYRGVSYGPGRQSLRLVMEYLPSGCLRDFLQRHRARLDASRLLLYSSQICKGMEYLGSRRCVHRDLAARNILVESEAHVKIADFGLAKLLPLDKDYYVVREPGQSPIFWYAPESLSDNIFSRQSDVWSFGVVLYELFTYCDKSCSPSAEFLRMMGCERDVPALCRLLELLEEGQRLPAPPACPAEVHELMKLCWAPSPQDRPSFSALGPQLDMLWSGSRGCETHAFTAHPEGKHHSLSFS
T3 sequence (P23458 849-1154): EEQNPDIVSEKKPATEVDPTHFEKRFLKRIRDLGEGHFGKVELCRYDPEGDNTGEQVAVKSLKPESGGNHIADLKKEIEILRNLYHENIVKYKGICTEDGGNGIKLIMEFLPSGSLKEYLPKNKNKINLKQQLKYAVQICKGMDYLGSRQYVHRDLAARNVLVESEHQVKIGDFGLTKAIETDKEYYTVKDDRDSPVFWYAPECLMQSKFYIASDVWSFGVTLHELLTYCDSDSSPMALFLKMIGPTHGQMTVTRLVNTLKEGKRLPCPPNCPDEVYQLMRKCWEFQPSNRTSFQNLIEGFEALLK
T2 sequence (O60674 828-1132): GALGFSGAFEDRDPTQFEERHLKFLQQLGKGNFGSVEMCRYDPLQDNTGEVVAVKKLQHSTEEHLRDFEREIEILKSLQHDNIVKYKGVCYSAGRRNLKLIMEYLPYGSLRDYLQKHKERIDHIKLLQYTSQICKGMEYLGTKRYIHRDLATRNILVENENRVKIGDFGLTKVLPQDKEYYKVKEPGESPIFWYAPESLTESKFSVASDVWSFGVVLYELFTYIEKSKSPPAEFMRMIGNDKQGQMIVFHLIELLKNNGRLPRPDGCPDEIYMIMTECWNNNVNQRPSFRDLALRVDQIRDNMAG

Compound | IC50 ([1]; Table D1) [nM] | IC50 ([2]; Table D1) [nM] | IC50 ([3]; Table D1) [nM] | IC50 (TYK2; Table D1) [nM] | IC50 [1] [nM] | IC50 [2] [nM] | IC50 [3] [nM] | IC50 (TYK2) [nM]
O=C(COc1ccc2cc1CCc1cncc(c1)Nc1ncc(Cl)c(n1)N2)N1CCN(c2cc(Cl)ccn2)CC1 [Example D244, 6-Chloro-12-{2-[4-(4-chloropyridin-2-yl)piperazin-1-yl]-2-oxoethoxy}-2,4,8,18,22-pentaazatetracyclo[14.3.1.1(3,7).1(9,13)]docosa-1(20),3(22),4,6,9(21),10,12,16,18-nonaene tris(trifluoroacetate)] | > 400 | 358 | 80 | > 400 |  |  |  | 
O=C(c1ccc(F)cc1F)N1CCC(CCNc2ccc3cc2CCc2cncc(c2)Nc2ncc(Cl)c(n2)N3)CC1 [Example D220, 6-Chloro-N-{2-[1-(2,4-difluorobenzoyl)piperidin-4-yl]ethyl}-2,4,8,18,22-pentaazatetracyclo[14.3.1.1(3,7).1(9,13)]docosa-1(20),3(22),4,6,9(21),10,12,16,18-nonaen-12-amine tris(trifluoroacetate)] | > 400 | 40 | 14 | 38 |  |  |  | 
O=C(Cc1noc2ccccc12)Nc1ccc2cc1CCc1cccc(c1)Nc1ncc(Cl)c(n1)N2 [Example C45, 2-(1,2-Benzisoxazol-3-yl)-N-[6-chloro-2,4,8,22-tetraazatetracyclo[14.3.1.1(3,7).1(9,13)]docosa-1(20),3(22),4,6,9(21),10,12,16,18-nonaen-12-yl]acetamide trifluoroacetate] |  |  |  |  | > 10000 | 321 | 165 | 544
CC(=O)N1CCN(C(=O)COc2ccc3cc2CCc2cncc(c2)Nc2ncc(Cl)c(n2)N3)CC1 [Example D252, 12-[2-(4-Acetylpiperazin-1-yl)-2-oxoethoxy]-6-chloro-2,4,8,18,22-pentaazatetracyclo[14.3.1.1(3,7).1(9,13)]docosa-1(20),3(22),4,6,9(21),10,12,16,18-nonaene bis(trifluoroacetate)] | > 400 | 244 | 65 | > 400 |  |  |  | 
N#Cc1cccc(NC(=O)N2CCN(c3ccc4cc3CCc3cccc(c3)Nc3ncc(Cl)c(n3)N4)CC2)c1 [Example D89, 4-[6-Chloro-2,4,8,22-tetraazatetracyclo[14.3.1.1(3,7).1(9,13)]docosa-1(20),3(22),4,6,9(21),10,12,16,18-nonaen-12-yl]-N-(3-cyanophenyl)piperazine-1-carboxamide bis(trifluoroacetate)] | 77 | 6.7 | 66 | 53 |  |  |  | 
CC(=O)N1CCC(Nc2ccc3cc2CCc2cncc(c2)Nc2ncc(Cl)c(n2)N3)CC1 [Example D158, N-(1-Acetylpiperidin-4-yl)-6-chloro-2,4,8,18,22-pentaazatetracyclo[14.3.1.1(3,7).1(9,13)]docosa-1(20),3(22),4,6,9(21),10,12,16,18-nonaen-12-amine tris(trifluoroacetate)] | > 400 | > 400 | 150 | > 400 |  |  |  | 
O=C(CC1CN(C(=O)c2ccno2)C1)Nc1ccc2cc1CCc1cncc(c1)Nc1ncc(Cl)c(n1)N2 [Example D144, N-[6-Chloro-2,4,8,18,22-pentaazatetracyclo[14.3.1.1(3,7).1(9,13)]docosa-1(20),3(22),4,6,9(21),10,12,16,18-nonaen-12-yl]-2-[1-(isoxazol-5-ylcarbonyl)azetidin-3-yl]acetamide bis(trifluoroacetate)] | > 1000 | 172 | 32 | 260 |  |  |  | 
Cc1[nH]c2ccccc2c1CC(=O)Nc1ccc2cc1CCc1cccc(c1)Nc1ncc(Cl)c(n1)N2 [Example C34, N-[6-Chloro-2,4,8,22-tetraazatetracyclo[14.3.1.1(3,7).1(9,13)]docosa-1(20),3(22),4,6,9(21),10,12,16,18-nonaen-12-yl]-2-(2-methyl-1H-indol-3-yl)acetamide trifluoroacetate] |  |  |  |  | 4000 | 178 | 265 | 775
